From ChEMBL document CHEMBL1143708, “5-alkynyl analogs of arabinouridine and 2'-deoxyuridine: cytostatic activity against herpes simplex virus and varicella-zoster thymidine kinase gene-transfected cells” (J Med Chem, 2007)
≈ marks a conversion by molar mass, not a printed value. Calls of active or inactive are those of the source. No cut-off for these calls is given here.

How the values were obtained:
[1] = Cytotoxicity against E6SM cells assessed as alteration in cell morphology; format: cell-based; settings: human
Human alphaherpesvirus 1 [2] = assay: Antiviral activity against HSV1 KOS in E6SM cells assessed as reduction of virus-induced cytopathogenicity; format: functional, organism-based; settings: Human alphaherpesvirus 1, KOS
Human alphaherpesvirus 2 = assay: Antiviral activity against HSV2 G in E6SM cells assessed as reduction of virus-induced cytopathogenicity; format: functional, organism-based; settings: Human alphaherpesvirus 2, G
Human alphaherpesvirus 1 [3] = assay: Antiviral activity against thymidine kinase-deficient HSV1 B2006 in E6SM cells assessed as reduction of virus-induced cytopathogenicity; format: functional, organism-based; settings: Human alphaherpesvirus 1, B2006, E6SM
Human alphaherpesvirus 1 [4] = assay: Antiviral activity against thymidine kinase deficient HSV1 VMW1837 in E6SM cells assessed as reduction of virus-induced cytopathogenicity; format: functional, organism-based; settings: Human alphaherpesvirus 1, VMW1837, E6SM
Human betaherpesvirus 5 [5] = assay: Antiviral activity against HCMV AD169 in HEL cells assessed as reduction of virus plaque formation; format: functional, organism-based; settings: Human betaherpesvirus 5, AD169, HEL
[6] = Cytotoxicity against HEL cells assessed as alteration in cell morphology; format: cell-based; settings: human
Human betaherpesvirus 5 [7] = assay: Antiviral activity against HCMV Davis in HEL cells assessed as reduction of virus plaque formation; format: functional, organism-based; settings: Human betaherpesvirus 5, Davis
[8] = Cytotoxicity against HEL cells; format: cell-based; settings: human
FM3A [9] = assay: Inhibition of proliferation of thymidine kinase deficient mouse FM3A cells; format: functional, cell-based
FM3A [10] = assay: Inhibition of proliferation of thymidine kinase deficient mouse FM3A cells expressing HSV1 thymidine kinase; format: functional, cell-based
FM3A [11] = assay: Inhibition of proliferation of thymidine kinase deficient mouse FM3A cells expressing HSV2 thymidine kinase; format: functional, cell-based
OST = assay: Inhibition of proliferation of thymidine kinase deficient OST cells; format: functional, cell-based; settings: Homo sapiens
[12] = Inhibition of proliferation of VZV thymidine kinase expressing OSTtk-/VZVtk+ -a cells; format: functional; settings: Homo sapiens
[13] = Inhibition of proliferation of VZV thymidine kinase expressing OSTtk-/VZVtk+ -b cells; format: functional; settings: Homo sapiens
[14] = tested on: Vesicular stomatitis virus; assay: Antiviral activity against VSV in HeLa cells at 40 to >400 ug/mL; format: functional, organism-based
Coxsackievirus B4 = assay: Antiviral activity against Coxsackie virus B4 in HeLa cells at 40 to >400 ug/mL; format: functional, organism-based
[15] = tested on: Respiratory syncytial virus; assay: Antiviral activity against Respiratory syncytial virus in HeLa cells at 40 to >400 ug/mL; format: functional, organism-based
Human respirovirus 3 = assay: Antiviral activity against Parainfluenza 3 virus in vero cells assessed as reduction of virus-induced cytopathicity at 20 to >400 ug/mL; format: functional, organism-based
[16] = tested on: Mammalian orthoreovirus 1; assay: Antiviral activity against Reovirus1 in vero cells assessed as reduction of virus-induced cytopathicity at 40 to >400 ug/mL; format: functional, organism-based
Sindbis virus = assay: Antiviral activity against Sindbis virus in vero cells assessed as reduction of virus-induced cytopathicity at 40 to >400 ug/mL; format: functional, organism-based
Punta Toro virus = assay: Antiviral activity against Punta Toro virus in vero cells assessed as reduction of virus-induced cytopathicity at 20 to >400 ug/mL; format: functional, organism-based
Human alphaherpesvirus 3 [17] = assay: Antiviral activity against TK+ VZV OKA in HEL cells assessed as reduction of virus plaque formation; format: functional, organism-based; settings: Human alphaherpesvirus 3, OKA
Human alphaherpesvirus 3 [18] = assay: Antiviral activity against TK+ VZV YS in HEL cells assessed as reduction of virus plaque formation; format: functional, organism-based; settings: Human alphaherpesvirus 3, YS
Human alphaherpesvirus 3 [19] = assay: Antiviral activity against thymidine kinase deficient VZV 07/1 in HEL cells assessed as reduction of virus plaque formation; format: functional, organism-based; settings: Human alphaherpesvirus 3, 07/1, HEL
Human alphaherpesvirus 3 [20] = assay: Antiviral activity against thymidine kinase deficient VZV YS in HEL cells assessed as reduction of virus plaque formation; format: functional, organism-based; settings: Human alphaherpesvirus 3, YS
[21] = Inhibition of proliferation of mouse FM3A/O cells; format: functional, cell-based

| Compound | MCC [1] | EC50 (Human alphaherpesvirus 1 [2]) | EC50 (Human alphaherpesvirus 2) | EC50 (Human alphaherpesvirus 1 [3]) | EC50 (Human alphaherpesvirus 1 [4]) | EC50 (Human betaherpesvirus 5 [5]) | MCC [6] | EC50 (Human betaherpesvirus 5 [7]) | CC50 [8] | IC50 (FM3A [9]) | IC50 (FM3A [10]) | IC50 (FM3A [11]) | IC50 (OST) | IC50 [12] | IC50 [13] | Activity [14] | Activity (Coxsackievirus B4) | Activity [15] | Activity (Human respirovirus 3) | Activity [16] | other results |
| --- | --- | --- | --- | --- | --- | --- | --- | --- | --- | --- | --- | --- | --- | --- | --- | --- | --- | --- | --- | --- | --- |
| Nc1nc2c(ncn2COCCO)c(=O)[nH]1 [ACYCLOVIR] | > 400 µg/mL | 0.02 µg/mL (≈ 0.0888 µM) | 0.07 µg/mL (≈ 0.311 µM) | 40 µg/mL (≈ 178 µM) | 7 µg/mL (≈ 31.1 µM) | – | – | – | – | – | – | – | – | – | – | – | – | – | – | – | – |
| Nc1nc2c(ncn2COC(CO)CO)c(=O)[nH]1 [GANCICLOVIR] | > 100 µg/mL | 0.002 µg/mL (≈ 0.00784 µM) | 0.007 µg/mL (≈ 0.0274 µM) | 0.7 µg/mL (≈ 2.74 µM) | 0.02 µg/mL (≈ 0.0784 µM) | 6300 nM | > 200 µM | – | – | – | – | – | – | – | – | – | – | – | – | – | – |
| Nc1ccn(C[C@@H](CO)OCP(=O)(O)O)c(=O)n1 [CIDOFOVIR] | – | – | – | – | – | 660 nM | – | 660 nM | 121000 nM | – | – | – | – | – | – | – | – | – | – | – | – |
| C#Cc1cn([C@@H]2O[C@H](CO)[C@@H](O)[C@@H]2O)c(=O)[nH]c1=O | 400 µg/mL | – | – | – | – | – | 200 µM | – | – | – | – | – | – | – | – | – | – | – | – | – | – |
| O=c1[nH]c(=O)n([C@H]2C[C@H](O)[C@@H](CO)O2)cc1C#CI | ≥ 100 µg/mL | 2 µg/mL (≈ 5.29 µM) | 7 µg/mL (≈ 18.5 µM) | 2 µg/mL (≈ 5.29 µM) | 7 µg/mL (≈ 18.5 µM) | 2500 nM | 200 µM | 580 nM | 760 nM | 87000 nM | 160 nM | 350 nM | 34000 nM | 63 nM | 120 nM | inactive | inactive | inactive | inactive | inactive | Activity (Sindbis virus): inactive; Activity (Punta Toro virus): inactive; EC50 (Human alphaherpesvirus 3 [17]): 180 nM; EC50 (Human alphaherpesvirus 3 [18]): 110 nM; EC50 (Human alphaherpesvirus 3 [19]): 890 nM; EC50 (Human alphaherpesvirus 3 [20]): 780 nM; IC50 [21]: 300 nM |
| C#Cc1cn([C@H]2C[C@H](O)[C@@H](CO)O2)c(=O)[nH]c1=O | > 400 µg/mL | 0.7 µg/mL (≈ 2.78 µM) | 2 µg/mL (≈ 7.93 µM) | 0.7 µg/mL (≈ 2.78 µM) | 4 µg/mL (≈ 15.9 µM) | 1200 nM | > 200 µM | 850 nM | 2500 nM | ≥ 250000 nM | 130 nM | 390 nM | 23000 nM | 83 nM | 160 nM | inactive | inactive | inactive | inactive | inactive | Activity (Sindbis virus): inactive; Activity (Punta Toro virus): inactive; EC50 (Human alphaherpesvirus 3 [17]): 160 nM; EC50 (Human alphaherpesvirus 3 [18]): 110 nM; EC50 (Human alphaherpesvirus 3 [19]): 810 nM; EC50 (Human alphaherpesvirus 3 [20]): 750 nM; IC50 [21]: 180 nM |
